Data published in patent US12383549B2, “Combination therapy of crenolanib and apoptosis pathway agents for the treatment of proliferative disorders” (Arog Pharmaceuticals, Inc., priority 2020, dated 2025).

Columns and labels:
[1] = tested on: relapsed or refractory AML patients with activating FLT3 mutations (FLT3-ITD); experiment: Clinical trial NCT02400281: oral crenolanib besylate in combination with intravenous azacitidine, single-patient case reports; assay type: in vivo, human
Excerpt: For the majority of patients, the clinical response is short-lived. Response criteria for AML clinical trials are adapted from the International Working Group for AML (Cheson, Bennett et al. 2003). Responders are patients who obtain a Complete Response (CR), Complete Response with incomplete blood count recovery (CRi), or Partial Remission (PR). Briefly, criteria are as follows: • 1. Complete Remission (CR): • a. Peripheral blood counts: • i. No circulating blasts • ii. Neutrophil count ≥1.0×10^9/L • iii. Platelet count ≥100×10^9/L • b. Bone marrow aspirate and biopsy: • i. ≤5% blasts • ii. No Auer Rods • iii. No extramedullary leukemia • 2. Complete remission with incomplete blood count recovery (CRi): • a. Peripheral blood counts: • i. No circulating blasts • ii. Neutrophil count <1.0×10^9/L, or • iii. Platelet count <100×10^9/L • b. Bone marrow aspirate and biopsy • i. ≤5% blasts • ii. No Auer Rods • iii. No extramedullary leukemia • 3. Partial remission: • a. All CR criteria if abnormal before treatment except: • b. ≥50% reduction in bone marrow blast but still >5%
(§1) To overcome the poor prognosis of the persistent FLT3-ITD mutation, the patient was provided oral crenolanib besylate in combination with intravenous azacitidine on a clinical trial for relapsed or refractory AML patients with activating FLT3 mutations (NCT02400281). At baseline, the patient presented with 64% bone marrow blasts. The patient began treatment with 75 mg/m^2/day of azacitidine for 7 days and 60 mg of oral crenolanib besylate three times daily for the remainder of the 28 days cycle.
as §1, with “13%” for “64%”, “80” for “60”, “daily.” for “daily for the remainder of the 28 days cycle.”

[2] = tested on: PDGFR, FLT3, and TRK kinases; settings: versus other kinases, including c-KIT, VEGFR2, TIE2, FGFR2, EGFR, ERBB2, and SRC; cited from earlier work
[3] = tested on: PB and BM blasts of leukemia patients; settings: cited from earlier work

CC1(COc2ccc3c(c2)ncn3-c2ccc3cccc(N4CCC(N)CC4)c3n2)COC1 [crenolanib besylate]
bone marrow blasts ([1]; Example 1: person, FLT3-ITD relapsed AML, baseline 64% blasts, azacitidine 75 mg/m^2/day for 7 days + crenolanib besylate 60 mg oral three times daily, after 27 days): 3%
clinical response ([1]; Example 1: same patient and regimen with azacitidine, after 27 days, neutrophils recovered, platelets partially recovered): CRi
bone marrow blasts ([1]; Example 2: person, FLT3-ITD AML relapsed after transplant, baseline 13% blasts, azacitidine 75 mg/m^2/day for 7 days + crenolanib besylate 80 mg oral three times daily, after 28 days): 1%
clinical response ([1]; Example 2: same patient and regimen with azacitidine, after 28 days): morphological leukemia free state
clinical response on continued single agent therapy ([1]; Example 2: single agent crenolanib besylate for an additional 28 days): maintained a MLFS

CC1(COc2ccc3c(c2)ncn3-c2ccc3cccc(N4CCC(N)CC4)c3n2)COC1 [crenolanib]
selectivity for PDGFR, FLT3, and TRK kinases [2]: significantly more selective

CNC(=O)c1cc(Oc2ccc(NC(=O)Nc3ccc(Cl)c(C(F)(F)F)c3)cc2)ccn1 [sorafenib]
bone marrow (BM) blast reduction [3]: only modest BM blast reductions
